Measurements as given in ChEMBL document CHEMBL1121555, “Quantitative structure-selectivity relationships. Comparison of the inhibition of Escherichia coli and bovine liver dihydrofolate reductase by 5-(substituted-benzyl)-2,4-diaminopyrimidines” (J Med Chem, 1980).

Key:
[1] = Compound was evaluated for the partition coefficients probably at the […] at the aqueous phase 0.1 N HCl; format: physicochemical; settings: 0.1 N HCl (aqueous phase)
[2] = Compound was evaluated for the partition coefficients probably at the pH >> 7.2 at the aqueous phase 0.1 N NaOH; settings: 0.1 N NaOH (aqueous phase)

Row | Structure (SMILES) | logD [1] | logD [2]
1 | COc1cccc(Cc2cnc(N)nc2N)c1 | -0.92 | 
2 | CC(=O)Nc1ccc(Cc2cnc(N)nc2N)cc1 | -1.94 | 
3 | Cc1cccc(Cc2cnc(N)nc2N)c1 | -0.51 | 
4 | Nc1ncc(Cc2ccc([N+](=O)[O-])cc2)c(N)n1 | -1.03 | 
5 | Nc1ncc(Cc2cccc(F)c2)c(N)n1 | -0.8 | 
6 | Nc1ncc(Cc2ccccc2)c(N)n1 | -1.03 | 1.58
7 | Nc1ncc(Cc2cccc(OCc3ccccc3)c2)c(N)n1 | 0.53 | 
8 | Nc1ncc(Cc2cccc(Cl)c2)c(N)n1 | -0.36 | 
